Assay: Formulation preparation behaviour (jet pulverization, granulation)
Assay type: physicochemical
Details: e.g. soluble granule, sodium salt
Text: The crystalline 2.5 hydrate of topramezone sodium salt of the present invention has huge advantages over the anhydrous form of topramezone sodium salt with respect to formulation preparation. The anhydrous topramezone sodium salt can be prepared according to the preparation method of the topramezone potassium salt alike compound reported in US2002025910A. […] Furthermore, the formulation preparation process is difficult. For example, when preparing the soluble granule, creaming and caking of the ingredients frequently occurs, and granulation thus becomes difficult.

SMILES	behaviour during jet pulverization / granulation
Cc1c(C(=O)c2cnn(C)c2[O-])ccc(S(C)(=O)=O)c1C1=NOCC1.[Na+] [anhydrous topramezone sodium salt]	easy to agglomerate during jet pulverization
Cc1c(C(=O)c2cnn(C)c2[O-])ccc(S(C)(=O)=O)c1C1=NOCC1.[Na+] [crystalline 2.5 hydrate of topramezone sodium salt]	can be granulated easily

From patent US12365671B2, “Crystalline hydrate of topramezone sodium salt and preparation method therefor” (ROTAM AGROCHEM INTERNATIONAL COMPANY LIMITED, priority 2021, dated 2025)
